According to US11642413B2, “Compounds for degrading Tau protein aggregates and uses thereof” (Aprinoia Therapeutics Limited, priority 2019, dated 2023):

Experiments:
[1] = biological target: heparin-induced aggregated Tau (aTau) (Homo sapiens (Human), UniProt P10636); experiment: PBB5 competition assay; format: binding; conditions: for Bmax: competition assay with PBB5; for IC50: 0.12 μM aTau, 0.1 μM PBB5, 37° C., 1 hour
Experimental: 1 mM IPTG (Sangon Biotech, Cat. No A100487) was used to induce production of tau by bacteria (BL21, Invitrogen, Cat. No C600003) transformed with a full-length 2N4R tau expression plasmid. After 3 hours, cell pellet was resuspended in lysis buffer (100 mM PIPES, 1 mM EGTA, 1 mM MgSO4, pH 6.8) and lysed by sonication followed by centrifugation (15,000 rpm, 15 min, 4° C.). The supernatant was then placed in a boiling water bath for 20 min, followed by centrifugation (15,000 rpm, 15 min, 4° C.). Supernatant was loaded onto a Q-Sepharose® Fast Flow column (GE healthcare, Cat. No 17-0510-01), the flow-through fraction was loaded onto an SP-Sepharose® Fast Flow column (GE healthcare, Cat. No 17-0729-01), and tau protein was eluted with elution buffer (100 mM PIPES, 1 M NaCl, 1 mM EGTA, 1 mM MgSO4, 0.2 M NaCl, pH 6.8). Collected fractions of tau-containing eluates were pooled, concentrated and dialyzed against HEPES buffer (25 mM HEPES, 0.1 mM EDTA, 0.5 mM DTT, 100 mM NaCl, pH 7.2) and stored at −80° C. in small aliquots until use. Protein concentration was determined by UV absorption.
2 μM of tau prepared in 30 mM Tris-HCl, pH 7.5 buffer was incubated in tube with 15 μM heparin (Sigma, Cat. No H3149) at 37° C. for 24 hours.
2 μM of aTau was diluted to 0.12 μM by […] (pH 6.8) and then incubated with 0.1 μM 2-(4-(2-(methylamino)pyridine-5-yl)-1,3-butadiene-1-yl)benzothiazole-6-ol (PBB5) and serially diluted compound (three-fold serial dilution, from 10 to 0.00017 μM) in a 96-well plate (Corning, Cat. No 3573) at 37° C. for 1 hour. Fluorescence intensity (excitation/emission=530/690 nm) of PBB5 was read by microplate spectrometer (EnSpire 2300, PerkinElmer). Percentage of competition was calculated using the following equation: (Max−well of compound alone)/(Max−Min)*100%, where Max=(Tau+PBB5) signals−(buffer+PBB5) signals; and Min=(buffer+PBB5) signals−(buffer+PBB5) signals.
The IC50 value of each compound was calculated with GraphPad Prism software using the “4 Parameter Logistic Model or Sigmoidal Dose-Response Model”: Y=Bottom+(Top−Bottom)/(1+(IC50/X)^HillSlope)

[2] = biological target: heparin-induced aggregated Tau (aTau), full-length 2N4R tau (Homo sapiens (Human), UniProt P10636); experiment: In vitro fluorometric aTau binding assay; conditions: 0.04 μM aTau, 37° C., 1 hour, fluorescence intensity
Sequence of heparin-induced aggregated Tau (aTau), full-length 2N4R tau (P10636 other isoform, or with tags, fused parts or gaps): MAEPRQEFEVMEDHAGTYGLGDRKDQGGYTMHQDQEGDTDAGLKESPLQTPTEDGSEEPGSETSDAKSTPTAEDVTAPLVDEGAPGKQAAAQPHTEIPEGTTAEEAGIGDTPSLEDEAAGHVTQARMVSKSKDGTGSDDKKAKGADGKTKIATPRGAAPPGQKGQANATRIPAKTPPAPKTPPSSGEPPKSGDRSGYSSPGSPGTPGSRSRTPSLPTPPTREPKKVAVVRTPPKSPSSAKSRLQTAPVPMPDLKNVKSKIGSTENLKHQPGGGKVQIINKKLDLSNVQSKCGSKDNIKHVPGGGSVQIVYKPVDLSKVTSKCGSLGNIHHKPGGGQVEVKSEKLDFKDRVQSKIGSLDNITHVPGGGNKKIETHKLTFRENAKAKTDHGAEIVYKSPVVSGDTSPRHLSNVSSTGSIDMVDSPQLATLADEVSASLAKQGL
Experimental: 1 mM IPTG (Sangon Biotech, Cat. No A100487) was used to induce production of tau by bacteria (BL21, Invitrogen, Cat. No C600003) transformed with a full-length 2N4R tau expression plasmid. After 3 hours, cell pellet was resuspended in lysis buffer (100 mM PIPES, 1 mM EGTA, 1 mM MgSO4, pH 6.8) and lysed by sonication followed by centrifugation (15,000 rpm, 15 min, 4° C.). The supernatant was then placed in a boiling water bath for 20 min, followed by centrifugation (15,000 rpm, 15 min, 4° C.). […] Protein concentration was determined by UV absorption. […]
2 μM aTau was diluted to 0.04 μM with 30 mM Tris-HCl (pH 6.8), and then incubated with serially diluted compound (three-fold serial dilutions, from 10 to 0.00017 μM) in a 96-well plate (Corning, Cat. No 3573) at 37° C. for 1 hour. Fluorescence intensity (excitation/emission=370/500 nm) of APN-0729 was read by microplate spectrometer (EnSpire 2300, PerkinElmer). Compound Kd values were calculated using the following equation: Y=Bmax*X/(Kd+X), where X is the concentration of compound; Y is the fluorescence signal of (compound+aTau)−(compound+DMSO); and Bmax is the maximum signal.

[3] = In vivo pharmacokinetic study of plasma and brain tissue; conditions: mice, 1 mg/kg, intravenous
Experimental: To determine whether the compounds of the present disclosure are capable of crossing the blood brain barrier (BBB), example compound 160313 was administered to mice in a pharmacokinetic study (1 mg/kg, intravenous) of plasma and brain tissue.
Animal Husbandry: Mice were housed at animal room environment with ventilation 15 times/hour, lighting 12 hours/day, temperature 20° C. to 24° C. and humidity 40% to 70%. The study rooms were disinfected and cleaned prior to the start of the study and the operation area was cleaned after each dosing or sampling during the study conduct. All animals had free access to food and water during the study. The animals had access to Certified Rodent Diet and water ad libitum. The nutritional composition and levels of contaminants of the diet and impurities and contaminants of the water were monitored by third organization. The health status of the animals was evaluated in accordance with accepted animal husbandry procedures and deemed suitable for experimental use.
Sample Collection & Processing: Approximately 110 μL of whole blood were collected from all animals via facial or cardiac puncture under anesthesia with Isoflurane into test tubes containing potassium ethylenediaminetetraacetate (K2EDTA) at 0.25, 0.5, 1, 2, 4, 8 and 24 hr post dose. Brian samples were collected at 0.25, 0.5, 1, 2, 4, 8 and 24 hours post dose. A perfusion with pre-cold saline will be conducted via cardiac puncture before brain collection. Blood samples were centrifuged at 2000 g at 4° C. for 5 minutes to obtain plasma samples by transferring the supernatants into new tubes. All plasma and brain samples were stored at approximately −70° C. until analysis.
Bioanalytical Method Development: The concentrations of compound in plasma and brain samples were determined using a liquid chromatography with tandem mass spectrometry (LC-MS/MS) based method.

Sequence of heparin-induced aggregated Tau (aTau) (P10636 other isoform, or with tags, fused parts or gaps): as above

CN(C)c1ccc(-c2ccc(-c3nc4ccc(NCCOCCOc5ccc6c(c5)C(=O)N(C5CCC(=O)NC5=O)C6=O)cc4s3)cc2)cn1 (stereo not drawn) [Compound 160219, 2-[2,6-bis(oxo)piperidin-3-yl]-5-[2-[2-[[2-[4-[6-(dimethylamino)pyridin-3-yl]phenyl]-1,3-benzothiazol-6-yl]amino]ethoxy]ethoxy]isoindole-1,3-dione]
Bmax [1]: 69%

CN(C)c1ccc2nc(-c3ccc(-c4ccc(NCCOCCN5C(=O)CCC(N6C(=O)c7ccc(O)cc7C6=O)C5=O)nc4)cc3)sc2c1 (stereo not drawn) [Compound 160703]
Kd [2]: 100 nM | IC50 [1]: 1000 nM | Bmax [1]: =100%

CN(C)c1ccc(-c2ccc(-c3nc4ccc(NCCOCCOCCOCCOCCOCCOc5ccc6c(c5)C(=O)N(C5CCC(=O)NC5=O)C6=O)cc4s3)cc2)cn1 (stereo not drawn) [Compound 159985, 2-[2,6-bis(oxo)piperidin-3-yl]-5-[2-[2-[2-[2-[2-[2-[[2-[4-[6-(dimethylamino)-pyridin-3-yl]phenyl]-1,3-benzothiazol-6-yl]amino]ethoxy]ethoxy]ethoxy]ethoxy]ethoxy]-ethoxy]isoindole-1,3-dione]
Bmax [1]: 71%

CN(C)c1ccc2nc(-c3ccc(-c4ccc(NCCOCCOCCOCCOCCOCCOc5ccc6c(c5)C(=O)N(C5CCC(=O)NC5=O)C6=O)nc4)cc3)sc2c1 (stereo not drawn) [Compound 160275, 2-[2,6-bis(oxo)piperidin-3-yl]-5-[2-[2-[2-[2-[2-[2-[[5-[4-[6-(dimethylamino)-1,3-benzothiazol-2-yl]phenyl]pyridin-2-yl]amino]ethoxy]ethoxy]-ethoxy]ethoxy]ethoxy]ethoxy]isoindole-1,3-dione]
Bmax [1]: 96%

CN(C)c1ccc2nc(-c3ccc(-c4ccc(NCCOCCOCCOCCOCCOCCOc5ccc6c(c5)CN(C5CCC(=O)NC5=O)C6=O)nc4)cc3)sc2c1 (stereo not drawn) [Compound 160383, 3-[6-[2-[2-[2-[2-[2-[2-[[5-[4-[6-(dimethylamino)-1,3-benzothiazol-2-yl]-phenyl]pyridin-2-yl]amino]ethoxy]ethoxy]ethoxy]ethoxy]-ethoxy]ethoxy]-3-oxo-1H-isoindol-2-yl]piperidine-2,6-dione]
Bmax [1]: 80%

CN(C)c1ccc(-c2ccc(-c3cn4cc(OCCOCCOCCOCCOCCOCCOc5ccc6c(c5)C(=O)N(C5CCC(=O)NC5=O)C6=O)ccc4n3)cc2)c(F)n1 (stereo not drawn) [Compound 160744, 2-[2,6-bis(oxo)piperidin-3-yl]-5-[2-[2-[2-[2-[2-[2-[2-[4-[6-(dimethyl-amino)-2-fluoro-pyridin-3-yl]phenyl]imidazo[1,2-a]pyridin-6-yl]oxyethoxy]ethoxy]ethoxy]-ethoxy]ethoxy]ethoxy]isoindole-1,3-dione]
Bmax [1]: 113%

CN(C)c1ccc(-c2ccc(-c3cn4cc(OCCOCCN5C(=O)CCC(N6C(=O)c7ccc(O)cc7C6=O)C5=O)ccc4n3)cc2)c(F)n1 (stereo not drawn) [Compound 160570]
Kd [2]: 360 nM | IC50 [1]: 2260 nM | Bmax [1]: =100%

CN(C)c1ccc(-c2ccc(-c3nc4ccc(NCCOCCOc5ccc6c(c5)CN(C5CCC(=O)NC5=O)C6=O)cc4s3)cc2)cn1 (stereo not drawn) [Compound 160313, 3-[6-[2-[2-[[2-[4-[6-(dimethylamino)pyridin-3-yl]phenyl]-1,3-benzothiazol-6-yl]amino]ethoxy]ethoxy]-3-oxo-1H-isoindol-2-yl]piperidine-2,6-dione]
BBB penetration [3]: able to penetrate BBB in short period of time | Kp ([3]; mouse, brain/plasma, read-out: brain/plasma ratio): ~0.31 | AUC(0-t) ([3]; mouse, Brain): 117 ng·h/mL | Cmax ([3]; mouse, Brain): 111 ng/mL | Tmax ([3]; mouse, Brain): 15 min | half-life ([3]; mouse, Brain): 61.8 min | AUC(0-t) ([3]; mouse, Plasma): 379 ng·h/mL | half-life ([3]; mouse, Plasma): 27.6 min | Bmax [1]: 64%

CN(C)c1ccc(-c2ccc(-c3nc4ccc(NCCOCCOCCOCCOCCOCCOc5ccc6c(c5)CN(C5CCC(=O)NC5=O)C6=O)cc4s3)cc2)cn1 (stereo not drawn) [Compound 160273, 3-[6-[2-[2-[2-[2-[2-[2-[[2-[4-[6-(dimethylamino)pyridin-3-yl]phenyl]-1,3-benzothiazol-6-yl]-amino]ethoxy]ethoxy]ethoxy]ethoxy]-ethoxy]ethoxy]-3-oxo-1H-isoindol-2-yl]piperidine-2,6-dione]
Bmax [1]: 59%
